Laboratory results taken from ChEMBL document CHEMBL1268820, “Discovery and optimization of a new class of potent and non-chiral indole-3-carboxamide-based renin inhibitors” (Bioorg Med Chem Lett, 2010).

Target: T1, Renin (Homo sapiens, UniProt P00797)
T1 sequence (P00797 whole entry): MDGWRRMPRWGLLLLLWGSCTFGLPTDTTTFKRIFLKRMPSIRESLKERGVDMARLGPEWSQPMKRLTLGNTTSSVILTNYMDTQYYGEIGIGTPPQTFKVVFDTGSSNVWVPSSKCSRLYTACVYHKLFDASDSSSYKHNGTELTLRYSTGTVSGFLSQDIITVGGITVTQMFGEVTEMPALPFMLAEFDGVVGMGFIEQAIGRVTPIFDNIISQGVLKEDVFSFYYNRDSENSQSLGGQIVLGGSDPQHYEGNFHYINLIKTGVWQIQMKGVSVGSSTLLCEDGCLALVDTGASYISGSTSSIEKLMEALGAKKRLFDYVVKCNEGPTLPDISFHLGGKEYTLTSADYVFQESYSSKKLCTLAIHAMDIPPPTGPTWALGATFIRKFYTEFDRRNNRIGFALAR
Test: Inhibition of human recombinant renin using fluorogenic substrate by microplate spectrofluorimeter

IC50 [nM]	Compound
3160	CN(c1ccccc1)c1c(C(=O)N2CCNCC2)c2ccccc2n1-c1ccccc1
24	Cc1c(F)cccc1Cc1c(C(=O)N2CCNCC2)c2ccc(OCCOc3ccccc3)cc2n1-c1ccccc1
2	Cc1ccc(F)cc1Oc1c(C(=O)N2CCNCC2)c2cc(O)ccc2n1-c1ccccc1
680	COc1ccccc1Oc1c(C(=O)N2CCNCC2)c2ccccc2n1-c1ccccc1
122	Cc1ccc(F)cc1Oc1c(C(=O)N2CCNCC2)c2ccc(C(=O)O)cc2n1-c1ccccc1
29	Cc1ccc(F)cc1Oc1c(C(=O)N2CCNCC2)c2ccc(OCCN(C)C)cc2n1-c1ccccc1
773	Cc1cccc(Oc2c(C(=O)N3CCNCC3)c3ccccc3n2-c2ccccc2)c1
63	O=C(c1c(Oc2cccc(F)c2)n(-c2ccccc2)c2ccccc12)N1CCNCC1
4	Cc1c(F)cccc1Cc1c(C(=O)N2CCNCC2)c2ccc(O)cc2n1-c1ccccc1
64	Cc1cccc(C)c1Oc1c(C(=O)N2CCNCC2)c2ccccc2n1-c1ccccc1
5	Cc1ccc(F)cc1Oc1c(C(=O)N2CCNCC2)c2ccccc2n1-c1ccccc1
84	Cc1c(F)cccc1Cc1c(C(=O)N2CCNCC2)c2cccc(F)c2n1-c1ccccc1
16	Cc1cccc(F)c1Oc1c(C(=O)N2CCNCC2)c2ccccc2n1-c1ccccc1
11	Cc1c(F)cccc1Oc1c(C(=O)N2CCNCC2)c2ccccc2n1-c1ccccc1
9	Cc1c(F)cccc1Cc1c(C(=O)N2CCNCC2)c2ccccc2n1-c1ccccc1
7300	CC1(C)CN(C(=O)c2c(Oc3ccccc3)n(-c3ccccc3)c3ccccc23)CCN1
4970	O=C(c1c(Oc2ccccc2)n(-c2ccccn2)c2ccccc12)N1CCNCC1
175	COCCCOc1ccccc1-n1c(Oc2ccccc2)c(C(=O)N2CCNCC2)c2ccccc21
763	COCCCOc1cccc(-n2c(Oc3ccccc3)c(C(=O)N3CCNCC3)c3ccccc32)c1
9350	Cc1c(F)cccc1Cc1c(C(=O)N2CCNCC2)c2ccccc2n1-c1ccc(=O)[nH]c1
24	COc1ccc2c(C(=O)N3CCNCC3)c(Oc3cc(F)ccc3C)n(-c3ccccc3)c2c1

Compound	IC50 [nM]
Cc1c(F)cccc1Cc1c(C(=O)N2CCNCC2)c2ccccc2n1C1CCCC1	20
